Data reported in US6916802B2, “Amino ceramide-like compounds and therapeutic methods of use” (Genzyme Corporation, priority 2002, dated 2005).
Marks after values point to notes of the source that are not given here.

How the values were obtained:
[1] = system: GlcCer synthase of MDCK cell homogenates; test: Inhibition of ceramide glucosyltransferase (GlcCer synthase) of MDCK cell homogenates; assay type: biochemical, canine; conditions: for Inhibition at 5 μM: 5 μM inhibitor, triplicate ± SD, samples partly isomer mixtures
Procedure, shortened: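 MDCK cell sonicate (~0.2 mg protein) incubated with octanoyl sphingosine (85 μg, in dioleoylphosphatidylcholine/sulfatide liposomes) and UDP-[^3H]glucose in a thermostatted ultrasonic bath. Aromatic inhibitors were dried into the tube; aliphatic inhibitors were incorporated in the substrate liposomes.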

[2] = system: MCF-7 breast carcinoma cells; test: Tumor cell growth in vitro (sulforhodamine B), MCF-7; assay type: cell-based, human; conditions: rounded off to one digit, read-out: Inhibition of tumor cell growth in vitro, IC50
Procedure, shortened: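 Cells in RPMI 1640 + 5% FBS, plated 1000/well (H-460, 9L) or 2000/well (MCF-7); compounds added day 1 from 2 mM BSA stocks diluted 500-fold in medium. Growth read by sulforhodamine B staining, A520, at day 5 (H-460, 9L) or day 6 (MCF-7), as percent of control.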

[3] = system: UMSCC-10A head and neck squamous carcinoma cells; test: Tumor cell growth in vitro (sulforhodamine B), UMSCC-10A; assay type: cell-based, human; conditions: rounded off to one digit, read-out: Inhibition of tumor cell growth in vitro, IC50
Procedure: Growth of cell lines. Comparisons of different inhibitors with regard to suppression of human cancer cell growth were made by the University of Michigan Cancer Center in vitro Drug Evaluation Core Laboratory. MCF-7 breast carcinoma cells, HT-29 colon adenocarcinoma cells, H-460 lung large cell carcinoma cells, and 9L brain gliosarcoma cells were grown in RPMI 1640 medium with 5% fetal bovine serum, 2 mM glutamine, 50 units/ml of penicillin, […] of streptomycin, and 0.1 mg/ml of neomycin. UMSCC-10A head and neck squamous carcinoma cells were grown in minimal essential medium with Earle salts and the same supplements. Medium components were from Sigma Chemical Co. Cells were plated in 96-well microtiter plates (1000 cells/well for H-460 and 9L cells, and 2000 cells/well for the other lines), and the test compounds were added 1 day later. The stock inhibitor solutions, 2 mM in 2 mM BSA, were diluted with different amounts of additional 2 mM BSA, then each solution was diluted 500-fold with growth medium to obtain the final concentrations indicated in the Figures and Tables.
Five days after plating the H-460 and 9L cells, or 6 days for the other lines, cell growth was evaluated by staining the adhering cells with sulforhodamine B and measuring the absorbance at 520 nm (Skehan, P. et al., “New Colorimetric Cytotoxicity Assay for Anticancer-Drug Screening,” J. Natl. Cancer Inst., 82:1107-1112 (1990)). The absorbance of the treated cultures is reported as percent of that of control cultures, to provide an estimate of the fraction of the cells that survived, or of inhibition of growth rate.

[4] = system: acid ceramidase; test: Acid ceramidase of MDCK cell homogenate; assay type: biochemical, canine
Procedure: Acid and neutral ceramidases were assayed under conditions like those above, but the medium contained 110 μM [1-^14C]decanoyl sphingosine (10^5 cpm) in 340 μM dioleoylphosphatidylcholine liposomes and 0.34 mg of MDCK cellular protein homogenate. […] After 60 min in the ultrasonic bath, 3 ml of C-M 2:1, carrier decanoic acid, and 0.6 ml of 0.9% saline were added and the lipids in the lower layer were separated by TLC with C-HOAc 9:1. The liberated decanoic acid was scraped off the glass plate and counted.

[5] = system: Ceramide synthase; test: Ceramide synthase of MDCK homogenate; assay type: biochemical, canine
Procedure: Ceramide synthase was assayed with 1 μM [3-^3H]sphingosine (70,000 cpm, repurified by column chromatography), 0.2 mM stearoyl-CoA, 0.5 mM dithiothreitol, and ˜300 μg of MDCK homogenate protein in 25 mM phosphate-K^+ buffer, pH 7.4, in a total volume of 0.2 ml. The incubation (for 30 min) and TLC were carried out as above and the ceramide band was counted.

[6] = system: Acid SMase; test: Acid sphingomyelinase of MDCK cells; assay type: biochemical, canine
Procedure: Acid and neutral SMase assays were based on the procedures of Gatt et al. (Gatt, S. et al., “Assay of Enzymes of Lipid Metabolism With Colored and Fluorescent Derivatives of Natural Lipids,” Meth. Enzymol., 72:351-375 (1981)), using liposomes containing NBD-SM dispersed like the labeled ceramide (10 μM substrate and 30 μM lecithin). The assay medium for the neutral enzyme also contained 50 mM Tris-Cl^− (pH 7.4), 25 mM KCl, 5 mM MgCl2 and 0.29 mg of MDCK cell protein in a total volume of 0.25 ml. Incubation was at 37° C. for 30 min in the ultrasonic bath, then the fluorescent product, NBD-ceramide, was isolated by partitioning the assay mixture with 0.45 ml 2-propanol, 1.5 ml heptane, and 0.2 ml water. After centrifugation, a trace of contaminating NBD-SM was removed from 0.9 ml of the upper layer by washing with 0.35 ml water. The upper layer was analyzed with a fluorometer (460 nm excitation, 515 nm emission).
[…] The resultant ceramide was determined as above.

Row | IC50 [2] | IC50 [3] | Ceramide Synthase, enzyme activity (% of control) ([5]; 5 μM) | Ceramide Synthase, enzyme activity (% of control) ([5]; 50 μM) | SMILES | Inhibition at 5 μM [1] | Ceramidase pH 4.5, enzyme activity (% of control) ([4]; 5 μM) | Ceramidase pH 4.5, enzyme activity (% of control) ([4]; 50 μM) | Sphingomyelinase pH 4.5, enzyme activity (% of control) ([6]; 5 μM) | Sphingomyelinase pH 4.5, enzyme activity (% of control) ([6]; 50 μM) | degree of inhibition of GlcCer synthase ([1]; 6 μM, inhibitor incorporated into the substrate liposomes)
1 | 3000 nM | 2000 nM | 97 ± 0 % of control | 102 ± 1 % of control | CCCCCCCCCCCCCCCC(=O)NC(CN1CCCC1)C(O)c1ccccc1 (racemic) [BML-129] | 15% | 108 ± 8 % of control | 171 ± 26^a % of control | 108 ± 4 % of control | 97 ± 3 % of control | 
2 | 2000 nM | 2000 nM | 108 ± 10 % of control | 106 ± 29 % of control | CCCCCCCCCCCCCCCC(=O)NC(CN1CCCC1)C(O)c1ccccc1 (racemic) [BML-130] | 79% | 107 ± 11 % of control | 160 ± 21^a % of control | 109 ± 1 % of control | 114 ± 2 % of control | 89±0.6%
